According to article PMC12892976, “Alkylation-based optimization of antifungal FPPS inhibitors yields a potent, broad-spectrum lipophilic zoledronate derivative” (mBio, 2025):
Values after ≈ are worked out from the molar mass of the structure shown.

Experiments:
[1] = tested on: Mucor circinelloides; experiment: MIC broth microdilution (CLSI); assay type: cell-based; settings: Mucor circinelloides 80-14-240-5007
Method: (§1) Antifungal susceptibility was determined by broth microdilution according to the CLSI guidelines described in M27-Ed4 ([16]).

[2] = tested on: Rhizopus oryzae; experiment: MIC broth microdilution (CLSI); assay type: cell-based; settings: Rhizopus oryzae 04-14-364-1703
Method: as §1

[3] = tested on: Cryptococcus bacillisporus; experiment: MIC broth microdilution (CLSI); assay type: cell-based; settings: Cryptococcus bacillisporus NIH179
Method: as §1

[4] = tested on: Cryptococcus deneoformans; experiment: MIC broth microdilution (CLSI); assay type: cell-based; settings: Cryptococcus deneoformans JEC21
Method: as §1

[5] = tested on: Pichia kudriavzevii; experiment: MIC broth microdilution (CLSI); assay type: cell-based; settings: Pichia kudriavzavii ATCC 6258
Method: Antifungal susceptibility was determined by broth microdilution according to the CLSI guidelines described in M27-Ed4 ([16]). […] MFC was determined by back-plating drug-treated cultures from MIC broths onto SDA plates. The MFC was defined as the lowest concentration from which no colonies could be cultured.

[6] = tested on: Candida auris; experiment: MIC broth microdilution (CLSI); assay type: cell-based; settings: Candida auris CDC-0384
Method: as §1

[7] = tested on: Aspergillus niger; experiment: MIC broth microdilution (CLSI); assay type: cell-based; settings: Aspergillus niger 111
Method: as §1

[8] = tested on: Aspergillus lentulus; experiment: MIC broth microdilution (CLSI); assay type: cell-based; settings: Aspergillus lentulus DTO 341-G7
Method: as §1

[9] = tested on: Aspergillus parafelis; experiment: MIC broth microdilution (CLSI); assay type: cell-based; settings: Aspergillus parafelis DTO 341-F2
Method: as §1

[10] = tested on: Aspergillus frankstonensis; experiment: MIC broth microdilution (CLSI); assay type: cell-based; settings: Aspergillus frankstonensis DTO 341-F3
Method: as §1

[11] = tested on: Paraphyton cookei; experiment: MIC broth microdilution (CLSI); assay type: cell-based; settings: Paraphyton cookei R-639
Method: as §1

[12] = tested on: Nannizzia nana; experiment: MIC broth microdilution (CLSI); assay type: cell-based; settings: Nannizzia nana R-133
Method: as §1

[13] = tested on: Trichophyton interdigitale; experiment: MIC broth microdilution (CLSI); assay type: cell-based; settings: Trichophyton interdigitale R-234
Method: as §1

[14] = tested on: Rhizopus oryzae; experiment: checkerboard drug interaction (FICI, MICc); assay type: cell-based;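 also: simplified diagonal checkerboard screen pairing antifungals with FPPS inhibitors, FICI calculated under the Loewe additivity model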
Method: (§2) Drug interactions between antifungals and FPPS inhibitors were investigated using a simplified checkerboard diagonal screening method ([45]). […] FICIs were determined according to the Loewe additivity model ([17]).

[15] = tested on: Cryptococcus bacillisporus; experiment: checkerboard drug interaction (FICI, MICc); assay type: cell-based;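 also: interaction of antifungals with FPPS inhibitors assessed by a simplified diagonal checkerboard screen, with FICI computed under the Loewe additivity model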
Method: as §2

[16] = tested on: Cryptococcus tetragattii; experiment: checkerboard drug interaction (FICI, MICc); assay type: cell-based;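 also: simplified diagonal checkerboard screen pairing antifungals with FPPS inhibitors, with FICI calculated under the Loewe additivity model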
Method: as §2

[17] = tested on: Cryptococcus deneoformans; experiment: checkerboard drug interaction (FICI, MICc); assay type: cell-based;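 also: simplified diagonal checkerboard screen pairing antifungals with FPPS inhibitors, FICI calculated under the Loewe additivity model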
Method: as §2

[18] = tested on: Scedosporium apiospermum; experiment: checkerboard drug interaction (FICI, MICc); assay type: cell-based;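 also: simplified diagonal checkerboard screen of antifungal plus FPPS inhibitor pairs, with FICI computed under the Loewe additivity model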
Method: as §2

[19] = tested on: Candida auris; experiment: checkerboard drug interaction (FICI, MICc); assay type: cell-based;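 also: simplified diagonal checkerboard screen pairing antifungals with FPPS inhibitors, with FICI computed under the Loewe additivity model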
Method: as §2

[20] = tested on: Candida dubliniensis; experiment: checkerboard drug interaction (FICI, MICc); assay type: cell-based;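 also: simplified diagonal checkerboard screen pairing antifungals with FPPS inhibitors, FICI calculated under the Loewe additivity model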
Method: as §2

[21] = tested on: Aspergillus niger; experiment: checkerboard drug interaction (FICI, MICc); assay type: cell-based;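 also: simplified diagonal checkerboard screen pairing antifungals with FPPS inhibitors, FICI calculated under the Loewe additivity model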
Method: as §2

[22] = tested on: Aspergillus terreus; experiment: checkerboard drug interaction (FICI, MICc); assay type: cell-based;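 also: simplified diagonal checkerboard screen pairing antifungals with FPPS inhibitors, FICI derived by the Loewe additivity model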
Method: as §2

[23] = tested on: Aspergillus udagawae; experiment: checkerboard drug interaction (FICI, MICc); assay type: cell-based;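 also: simplified diagonal checkerboard screen pairing antifungals with FPPS inhibitors, FICI calculated using the Loewe additivity model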
Method: as §2

[24] = tested on: Aspergillus lentulus; experiment: checkerboard drug interaction (FICI, MICc); assay type: cell-based;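 also: simplified diagonal checkerboard screen pairing antifungals with FPPS inhibitors, with the interaction index calculated under the Loewe additivity model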
Method: as §2

[25] = tested on: Aspergillus felis; experiment: checkerboard drug interaction (FICI, MICc); assay type: cell-based
Method: as §2

[26] = tested on: Fusarium solani; experiment: MIC broth microdilution (CLSI); settings: Fusarium solani 04-16-056-1862
Method: as §1

[27] = tested on: Trichophyton tonsurans; experiment: MIC broth microdilution (CLSI); settings: Trichophyton tonsurans R-168
Method: as §1

[28] = tested on: Trichophyton soudanense; experiment: MIC broth microdilution (CLSI); settings: Trichophyton soudanense R-167
Method: as §1

[29] = tested on: Lomentospora prolificans; experiment: checkerboard drug interaction (FICI, MICc)
Method: as §2

[30] = tested on: Aspergillus parafelis; experiment: checkerboard drug interaction (FICI, MICc)
Method: as §2

[31] = tested on: Aspergillus frankstonensis; experiment: checkerboard drug interaction (FICI, MICc);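 also: simplified diagonal checkerboard screen pairing antifungals with FPPS inhibitors, FICI calculated using the Loewe additivity model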
Method: as §2

[32] = tested on: Epidermophyton floccosum; experiment: checkerboard drug interaction (FICI, MICc)
Method: as §2

[33] = tested on: Paraphyton cookei; experiment: checkerboard drug interaction (FICI, MICc);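 also: simplified diagonal checkerboard screen pairing an antifungal with an FPPS inhibitor, FICI computed under the Loewe additivity model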
Method: as §2

[34] = tested on: Trichophyton interdigitale; experiment: checkerboard drug interaction (FICI, MICc);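 also: simplified diagonal checkerboard screen pairing antifungals with FPPS inhibitors, FICI values calculated under the Loewe additivity model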
Method: as §2

For Nc1nc(=O)[nH]cc1F [5FC, 5-flucytosine], the “MIC / MEC” value [1] was >64 mg/L, the “MIC / MEC” value [2] was >64 mg/L and the “MIC / MEC” value [3] was 4 mg/L (≈ 31 µM). For the same compound, the “MIC / MEC” value [4] was 2 mg/L (≈ 15.5 µM), the “MIC / MEC” value [5] was 16 mg/L (≈ 124 µM) and the “MIC / MEC” value [6] was 2 mg/L (≈ 15.5 µM). For the same compound, the “MIC / MEC” value [7] was >64 mg/L, the “MIC / MEC” value [8] was >64 mg/L and the “MIC / MEC” value [9] was >64 mg/L. For the same compound, the “MIC / MEC” value [10] was >64 mg/L, the “MIC / MEC” value [11] was >64 mg/L and the “MIC / MEC” value [12] was 32 mg/L (≈ 248 µM). The “MIC / MEC” value [13] was >64 mg/L, the “antifungal MICc” value ([14]; in combination with 10-ZOL) was 512 and the “antifungal MICc” value ([14]; in combination with ZOL) was 256. For the same compound, the “antifungal MICc” value ([15]; in combination with 10-ZOL) was 1, the “antifungal MICc” value ([15]; in combination with ZOL) was 0.125 and the “antifungal MICc” value ([16]; in combination with 10-ZOL) was 0.5. For the same compound, the “antifungal MICc” value ([16]; in combination with ZOL) was 0.5, the “antifungal MICc” value ([17]; in combination with 10-ZOL) was 0.25 and the “antifungal MICc” value ([17]; in combination with ZOL) was 0.5. For the same compound, the “antifungal MICc” value ([18]; in combination with 10-ZOL) was 256, the “antifungal MICc” value ([18]; in combination with ZOL) was 256 and the “antifungal MICc” value ([19]; in combination with 10-ZOL) was 2. The “antifungal MICc” value ([19]; in combination with ZOL) was 1, the “antifungal MICc” value ([20]; in combination with 10-ZOL) was 0.125 and the “antifungal MICc” value ([20]; in combination with ZOL) was 0.125. For the same compound, the “antifungal MICc” value ([21]; in combination with 10-ZOL) was 512, the “antifungal MICc” value ([21]; in combination with ZOL) was 256 and the “antifungal MICc” value ([22]; in combination with 10-ZOL) was 64. The “antifungal MICc” value ([22]; in combination with ZOL) was 32, the “antifungal MICc” value ([23]; in combination with 10-ZOL) was 64 and the “antifungal MICc” value ([23]; in combination with ZOL) was 256. The “antifungal MICc” value ([24]; in combination with 10-ZOL) was 512, the “antifungal MICc” value ([24]; in combination with ZOL) was 256 and the “antifungal MICc” value ([25]; in combination with 10-ZOL) was 256. The “antifungal MICc” value ([25]; in combination with ZOL) was 64, the “MIC / MEC” value [26] was >64 mg/L and the “MIC / MEC” value [27] was 64 mg/L (≈ 496 µM). For the same compound, the “MIC / MEC” value [28] was 64 mg/L (≈ 496 µM), the “antifungal MICc” value ([29]; in combination with 10-ZOL) was 256 and the “antifungal MICc” value ([29]; in combination with ZOL) was 256. The “antifungal MICc” value ([30]; in combination with 10-ZOL) was 512, the “antifungal MICc” value ([30]; in combination with ZOL) was 128 and the “antifungal MICc” value ([31]; in combination with 10-ZOL) was 256. The “antifungal MICc” value ([31]; in combination with ZOL) was 256, the “antifungal MICc” value ([32]; in combination with 10-ZOL) was 32 and the “antifungal MICc” value ([32]; in combination with ZOL) was 32. The “antifungal MICc” value ([33]; in combination with 10-ZOL) was 512, the “antifungal MICc” value ([33]; in combination with ZOL) was 512 and the “antifungal MICc” value ([34]; in combination with 10-ZOL) was 64. For the same compound, the “antifungal MICc” value ([34]; in combination with ZOL) was 128.

For OC(Cn1cncn1)(Cn1cncn1)c1ccc(F)cc1F [FLC, fluconazole], the “MIC / MEC” value [3] was 1 mg/L (≈ 3.27 µM), the “MIC / MEC” value [4] was 0.5 mg/L (≈ 1.63 µM) and the “MIC / MEC” value [5] was 32 mg/L (≈ 104 µM). For the same compound, the “MIC / MEC” value [12] was 32 mg/L (≈ 104 µM), the “antifungal MICc” value ([14]; in combination with 10-ZOL) was 32 and the “antifungal MICc” value ([15]; in combination with 10-ZOL) was 1. For the same compound, the “antifungal MICc” value ([15]; in combination with ZOL) was 0.125, the “antifungal MICc” value ([16]; in combination with 10-ZOL) was 2 and the “antifungal MICc” value ([16]; in combination with ZOL) was 1. For the same compound, the “antifungal MICc” value ([17]; in combination with 10-ZOL) was 0.25, the “antifungal MICc” value ([17]; in combination with ZOL) was 0.125 and the “antifungal MICc” value ([19]; in combination with 10-ZOL) was 64. The “antifungal MICc” value ([19]; in combination with ZOL) was 32, the “antifungal MICc” value ([20]; in combination with 10-ZOL) was 0.125 and the “antifungal MICc” value ([20]; in combination with ZOL) was 0.03125. For the same compound, the “antifungal MICc” value ([21]; in combination with 10-ZOL) was 64, the “antifungal MICc” value ([22]; in combination with 10-ZOL) was 2 and the “antifungal MICc” value ([22]; in combination with ZOL) was 8. The “antifungal MICc” value ([23]; in combination with 10-ZOL) was 4, the “antifungal MICc” value ([24]; in combination with 10-ZOL) was 4 and the “antifungal MICc” value ([24]; in combination with ZOL) was 64. For the same compound, the “antifungal MICc” value ([25]; in combination with 10-ZOL) was 4, the “antifungal MICc” value ([29]; in combination with ZOL) was 512 and the “antifungal MICc” value ([30]; in combination with 10-ZOL) was 4. For the same compound, the “antifungal MICc” value ([31]; in combination with 10-ZOL) was 64, the “antifungal MICc” value ([32]; in combination with 10-ZOL) was 32 and the “antifungal MICc” value ([33]; in combination with 10-ZOL) was 8. The “antifungal MICc” value ([34]; in combination with 10-ZOL) was 32.
